From ChEMBL document CHEMBL5143638, “Natural aloe emodin-hybridized sulfonamide aminophosphates as novel potential membrane-perturbing and DNA-intercalating agents against Enterococcus faecalis” (Bioorg Med Chem Lett, 2022) come the findings set out here.

Holding throughout (assay type): functional
The test system of test [1] is Staphylococcus aureus. Put plainly: Antibacterial activity against Staphylococcus aureus ATCC 25923 assessed as inhibition of bacterial growth measured after 24 hrs by CLSI based broth microdilution method. In general terms: Dilution methods test growth across graded concentrations, often in twofold steps.
The subject of test [2] is Escherichia coli. Put plainly: Antibacterial activity against Escherichia coli ATCC 25922 assessed as inhibition of bacterial growth measured after 24 hrs by CLSI based broth microdilution method.
Test [3] relates to Enterococcus faecalis. Description: Antibacterial activity against Enterococcus faecalis assessed as inhibition of bacterial growth measured after 24 hrs by CLSI based broth microdilution method.
In test [4] the test system is Acinetobacter baumannii. Description: Antibacterial activity against Acinetobacter baumannii assessed as inhibition of bacterial growth measured after 24 hrs by CLSI based broth microdilution method.
Test [5] relates to Pseudomonas aeruginosa. Put plainly: Antibacterial activity against Pseudomonas aeruginosa ATCC 27853 assessed as inhibition of bacterial growth measured after 24 hrs by CLSI based broth microdilution method.
The subject of test [6] is Klebsiella pneumoniae. Put plainly: Antibacterial activity against Klebsiella pneumoniae assessed as inhibition of bacterial growth measured after 24 hrs by CLSI based broth microdilution method.
Test [7] has as its system Staphylococcus aureus. Put plainly: Antibacterial activity against methicillin-resistant Staphylococcus aureus N315 assessed as inhibition of bacterial growth measured after 24 hrs by CLSI based broth microdilution method.
Test [8] relates to Escherichia coli. Description: Antibacterial activity against Escherichia coli assessed as inhibition of bacterial growth measured after 24 hrs by CLSI based broth microdilution method.
The test system of test [9] is Pseudomonas aeruginosa. Put plainly: Antibacterial activity against Pseudomonas aeruginosa assessed as inhibition of bacterial growth measured after 24 hrs by CLSI based broth microdilution method.
The subject of test [10] is Staphylococcus aureus. Put plainly: Antibacterial activity against Staphylococcus aureus assessed as inhibition of bacterial growth measured after 24 hrs by CLSI based broth microdilution method.

In brackets after ≈: the same amount, converted by molar mass.

Usually MIC stands for the lowest concentration found to suppress growth. For `CCn1cc(C(=O)O)c(=O)c2cc(F)c(N3CCNCC3)cc21` [NORFLOXACIN], the minimal inhibitory concentration (MIC) in test [1] worked out at 4 µg/mL (≈ 12.5 µM); in test [2], 4 µg/mL (≈ 12.5 µM); in [3], 4 µg/mL (≈ 12.5 µM); in test [4] it was 8 µg/mL (≈ 25.1 µM); in test [5] it was 2 µg/mL (≈ 6.26 µM); in [6] it was 4 µg/mL (≈ 12.5 µM). Also, the MIC in [7] amounted to 8 µg/mL (≈ 25.1 µM); in [8], 8 µg/mL (≈ 25.1 µM); in [9] it was 2 µg/mL (≈ 6.26 µM); in test [10] it was 8 µg/mL (≈ 25.1 µM).
With `COP(=O)(OC)C(Nc1ccc(S(=O)(=O)Nc2onc(C)c2C)cc1)c1cc(O)c2c(c1)C(=O)c1cccc(O)c1C2=O` (stereo not given), the minimum inhibitory concentration (MIC) in test [1] came out at 8 µg/mL (≈ 12.7 µM); in [2], 0.5 µg/mL (≈ 0.797 µM); in [3], 64 µg/mL (≈ 102 µM); in [4], 4 µg/mL (≈ 6.37 µM); in [5] it was 256 µg/mL (≈ 408 µM); in test [6], 32 µg/mL (≈ 51 µM). The MIC amounted to 2 µg/mL (≈ 3.19 µM) in [7], 128 µg/mL (≈ 204 µM) in [8], 8 µg/mL (≈ 12.7 µM) in test [9] and 2 µg/mL (≈ 3.19 µM) in [10].
On to `CC(C)OP(=O)(OC(C)C)C(Nc1ccc(S(=O)(=O)Nc2nccs2)cc1)c1cc(O)c2c(c1)C(=O)c1cccc(O)c1C2=O` (stereo not given), for which the minimum inhibitory concentration (MIC) was 32 µg/mL (≈ 47.6 µM) in [1]; 128 µg/mL (≈ 191 µM) in [2]; 256 µg/mL (≈ 381 µM) in [3]; 256 µg/mL (≈ 381 µM) in test [4]; 128 µg/mL (≈ 191 µM) in test [5]; 256 µg/mL (≈ 381 µM) in [6]. The minimum inhibitory concentration (MIC) in test [7], in test [8], in test [9] and in test [10] was 256 µg/mL (≈ 381 µM) each time.
On to `COP(=O)(OC)C(Nc1ccc(S(=O)(=O)Nc2nccs2)cc1)c1cc(O)c2c(c1)C(=O)c1cccc(O)c1C2=O` (stereo not given), for which the minimal inhibitory concentration (MIC) in [1] is 32 µg/mL (≈ 52 µM); in [2], 64 µg/mL (≈ 104 µM); in [3] it was 32 µg/mL (≈ 52 µM); in [4] it was 8 µg/mL (≈ 13 µM); in test [5], 64 µg/mL (≈ 104 µM); in test [6], 2 µg/mL (≈ 3.25 µM). For the same compound, the MIC was determined as 64 µg/mL (≈ 104 µM) in [7], 1 µg/mL (≈ 1.62 µM) in test [8], 16 µg/mL (≈ 26 µM) in [9] and 8 µg/mL (≈ 13 µM) in test [10].
Take `O=C1c2cccc(O)c2C(=O)c2c(O)cc(CO)cc21` [ALOE-EMODIN]: the minimal inhibitory concentration (MIC) in [1] came to 8 µg/mL (≈ 29.6 µM); in [2], 4 µg/mL (≈ 14.8 µM); in test [3], 32 µg/mL (≈ 118 µM); in [4], 8 µg/mL (≈ 29.6 µM); in test [5], 4 µg/mL (≈ 14.8 µM); in [6], 64 µg/mL (≈ 237 µM). In addition, the MIC came to 16 µg/mL (≈ 59.2 µM) in test [7], 8 µg/mL (≈ 29.6 µM) in test [8], 16 µg/mL (≈ 59.2 µM) in [9] and 64 µg/mL (≈ 237 µM) in test [10].
Turning to `Cc1cc(NS(=O)(=O)c2ccc(NC(c3cc(O)c4c(c3)C(=O)c3cccc(O)c3C4=O)P(=O)(OC(C)C)OC(C)C)cc2)no1` (stereo not given), the MIC in test [1] came to 256 µg/mL (≈ 382 µM); in test [2], 64 µg/mL (≈ 95.6 µM); in test [3], 32 µg/mL (≈ 47.8 µM); in [4] it was 0.5 µg/mL (≈ 0.747 µM); in test [5], 8 µg/mL (≈ 11.9 µM); in [6], 256 µg/mL (≈ 382 µM). Besides, the minimal inhibitory concentration (MIC) in test [7] amounted to 128 µg/mL (≈ 191 µM); in [8], 64 µg/mL (≈ 95.6 µM); in test [9] it was 32 µg/mL (≈ 47.8 µM); in [10], 128 µg/mL (≈ 191 µM).
`CCCCOP(=O)(OCCCC)C(Nc1ccc(S(N)(=O)=O)cc1)c1cc(O)c2c(c1)C(=O)c1cccc(O)c1C2=O` (stereo not given): the minimum inhibitory concentration (MIC) in [1] came out at 256 µg/mL (≈ 415 µM); in [2], 256 µg/mL (≈ 415 µM); in test [3], 128 µg/mL (≈ 208 µM); in test [4], 256 µg/mL (≈ 415 µM); in test [5], 256 µg/mL (≈ 415 µM); in [6], 256 µg/mL (≈ 415 µM). Besides, the MIC was found to be 64 µg/mL (≈ 104 µM) in [7], 256 µg/mL (≈ 415 µM) in [8], 256 µg/mL (≈ 415 µM) in [9] and 256 µg/mL (≈ 415 µM) in [10].
Consider `Cc1cc(NS(=O)(=O)c2ccc(N)cc2)no1` [SULFAMETHOXAZOLE], for which the MIC in [1] stood at 32 µg/mL (≈ 126 µM); in test [2], 4 µg/mL (≈ 15.8 µM); in [3], 16 µg/mL (≈ 63.2 µM); in test [4] it was 4 µg/mL (≈ 15.8 µM); in test [5], 2 µg/mL (≈ 7.9 µM); in [6] it was 8 µg/mL (≈ 31.6 µM). The MIC was determined as 4 µg/mL (≈ 15.8 µM) in [7], 64 µg/mL (≈ 253 µM) in [8], 4 µg/mL (≈ 15.8 µM) in test [9] and 8 µg/mL (≈ 31.6 µM) in test [10].
As for `Cc1noc(NS(=O)(=O)c2ccc(NC(c3cc(O)c4c(c3)C(=O)c3cccc(O)c3C4=O)P(=O)(Oc3ccccc3)Oc3ccccc3)cc2)c1C` (stereo not given), the MIC in test [1] turned out to be 16 µg/mL (≈ 21.3 µM); in test [2], 64 µg/mL (≈ 85.1 µM); in test [3] it was 64 µg/mL (≈ 85.1 µM); in test [4] it was 128 µg/mL (≈ 170 µM); in [5], 64 µg/mL (≈ 85.1 µM); in test [6], 128 µg/mL (≈ 170 µM). The minimum inhibitory concentration (MIC) in test [7] was found to be 32 µg/mL (≈ 42.6 µM); in test [8] it was 64 µg/mL (≈ 85.1 µM); in test [9] it was 32 µg/mL (≈ 42.6 µM); in [10], 16 µg/mL (≈ 21.3 µM).
